This test deals with T1, TLR7 (Homo sapiens, UniProt Q9NYK1).
T1 sequence (Q9NYK1 27-1049): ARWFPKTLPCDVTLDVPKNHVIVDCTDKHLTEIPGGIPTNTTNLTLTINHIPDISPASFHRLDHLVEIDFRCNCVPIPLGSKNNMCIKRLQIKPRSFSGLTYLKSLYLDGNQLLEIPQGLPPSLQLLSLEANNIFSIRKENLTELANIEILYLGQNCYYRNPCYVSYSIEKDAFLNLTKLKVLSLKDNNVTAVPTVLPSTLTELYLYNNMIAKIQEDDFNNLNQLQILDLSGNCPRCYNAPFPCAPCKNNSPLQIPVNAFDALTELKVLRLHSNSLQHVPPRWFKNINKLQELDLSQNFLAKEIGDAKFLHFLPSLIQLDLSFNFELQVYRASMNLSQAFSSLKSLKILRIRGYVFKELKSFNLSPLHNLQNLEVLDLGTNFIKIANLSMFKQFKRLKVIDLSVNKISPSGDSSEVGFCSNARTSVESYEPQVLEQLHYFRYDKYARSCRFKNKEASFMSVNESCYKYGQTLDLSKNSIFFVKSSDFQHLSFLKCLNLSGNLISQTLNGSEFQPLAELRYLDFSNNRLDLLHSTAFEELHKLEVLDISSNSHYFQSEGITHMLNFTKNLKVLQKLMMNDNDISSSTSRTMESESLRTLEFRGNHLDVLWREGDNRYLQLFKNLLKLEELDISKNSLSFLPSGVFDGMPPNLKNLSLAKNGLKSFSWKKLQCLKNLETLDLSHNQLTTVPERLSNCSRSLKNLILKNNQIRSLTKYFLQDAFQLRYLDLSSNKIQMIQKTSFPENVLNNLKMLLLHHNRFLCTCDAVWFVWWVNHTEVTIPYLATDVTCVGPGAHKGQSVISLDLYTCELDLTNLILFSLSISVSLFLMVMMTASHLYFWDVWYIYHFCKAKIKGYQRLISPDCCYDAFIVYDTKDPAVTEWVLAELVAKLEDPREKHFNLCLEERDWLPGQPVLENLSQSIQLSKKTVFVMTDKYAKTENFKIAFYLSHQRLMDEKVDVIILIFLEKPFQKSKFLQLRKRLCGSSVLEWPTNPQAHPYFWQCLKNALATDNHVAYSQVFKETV
Briefly: Human TLR7 reporter gene agonistic activity assay. Format: cell-based. More on the design: host or cells: HEK293 (TLR7/NF-κB/SEAPorter). How it is done: Compounds were dissolved in dimethyl sulfoxide. Before stimulation with compound, Human TLR7 reporter cell line (Novus Biological) was seeded in 96-well microtiter plate (AGC techno glass) at 5 × 10^4 cells/well in DMEM (GIBCO) with 10% fetal bovine serum (GIBCO), and 10 ug/ml Blastcidin S HCl (GIBCO) and incubated at 37 °C in 5% CO2. The plates were incubated over-night and then stimulated with various concentrations of compound and R848. The plates were then incubated an additional 20 ± 1 h at 37 °C in 5% CO2 and then the secreted embryonic alkaline phosphatase (SEAP) activity was measured as activation of human TLR7. The SEAP activity was evaluated as follows: pNPP (Invitrogen, USA) was added to the incubated sample (50 μl/well); after 15 min, 4 M sodium hydroxide solution (nacalai tesque, Japan) was added thereto (50 μl/well) to quench the reaction; and the absorbance of each sample was measured at 405 nm with microplate reader SpectraMax M4 (Molecular Devices, USA).

`CCCCOc1nc(N)c2nc(-c3cccnc3)n(Cc3ccccc3)c2n1` [Cpd-5]: the “activation of TLR7” value is “without causing any inhibition of either TLR8 or TLR9 and activation of TLR7”. Where the note is “compound 0.001 nM (as headed)”, the “activation of human TLR7, reporter signal” value (from here on “activation of human TLR7”) was -0.0519. The “activation of human TLR7” value (compound 0.003 nM (as headed)) is on record as -0.05305. Also, for the setting “compound 0.01 nM (as headed)”, the “activation of human TLR7” value was -0.08885. Moreover, the “activation of human TLR7” value (compound 0.03 nM (as headed)) is given as -0.06455. Also, the “activation of human TLR7” value (compound 0.1 nM (as headed)) is -0.0507. Moreover, the “activation of human TLR7” value (compound 0.3 nM (as headed)) is recorded as -0.02125. Also, where the note is “compound 1 nM (as headed)”, the “activation of human TLR7” value is recorded as -0.05725. For the same molecule, the “activation of human TLR7” value (compound 3 nM (as headed)) is recorded as -0.0655. Besides, the “activation of human TLR7” value (compound 10 nM (as headed)) was -0.0852. Also, where the note is “compound 30 nM (as headed)”, the “activation of human TLR7” value was -0.0846. Moreover, the “activation of human TLR7” value (compound 100 nM (as headed)) is recorded as -0.0973.
Regarding `CCOc1nc(N)c2nc(-c3cncc(F)c3)n(Cc3ccc(CN4C[C@@H]5C[C@H]4CN5C)cc3)c2n1` [Cpd-6], the “activation of human TLR7” value (compound 0.001 nM (as headed)) is -0.07495; the “activation of human TLR7” value (compound 0.003 nM (as headed)) is recorded as -0.076; the “activation of human TLR7” value (compound 0.01 nM (as headed)) is recorded as -0.1139; the “activation of human TLR7” value (compound 0.03 nM (as headed)) is -0.0956; the “activation of human TLR7” value (compound 0.1 nM (as headed)) was -0.074; the “activation of human TLR7” value (compound 0.3 nM (as headed)) is on record as -0.01435. Further, the “activation of human TLR7” value runs as follows: (compound 1 nM (as headed)) -0.0641; (compound 3 nM (as headed)) -0.07475; (compound 10 nM (as headed)) -0.1166; (compound 30 nM (as headed)) -0.1098; (compound 100 nM (as headed)) -0.12.
Regarding `CCOc1nc(C)c2nc(-c3cncc(F)c3)n(Cc3ccc(CN4C[C@@H]5C[C@H]4CN5C)cc3)c2n1` [Cpd-7], the “activation of human TLR7” value (compound 0.001 nM (as headed)) is given as -0.0428; the “activation of human TLR7” value (compound 0.003 nM (as headed)) is on record as -0.04595; the “activation of human TLR7” value (compound 0.01 nM (as headed)) is reported as -0.1002; the “activation of human TLR7” value (compound 0.03 nM (as headed)) is on record as -0.06165; the “activation of human TLR7” value (compound 0.1 nM (as headed)) is -0.0434; the “activation of human TLR7” value (compound 0.3 nM (as headed)) was -0.02775. Further, the “activation of human TLR7” value runs as follows: (compound 1 nM (as headed)) -0.0578; (compound 3 nM (as headed)) -0.0693; (compound 10 nM (as headed)) -0.1036; (compound 30 nM (as headed)) -0.0961; (compound 100 nM (as headed)) -0.09835.

(Values after PMC7562955 (Nature Communications, 2020).)
